From patent EP4806443A1, “ANTICANCER AGENT KIT” (Nihon Trim Co., Ltd., priority 2023, dated 2025) come the findings set out here.

Holding throughout (assay type): cell-based, Human
The subject of assay [1] is HeLa cells in which ATG7 was knocked out (ATG7 KO). Kind of assay: Apoptosis induction (Cell Death Detection […]), HeLa ATG7 KO. The following applies: doxorubicin 1 or 2 µM, 24 hours; ATG7 KO compared with ATG7 WT (FIG. 7).
Experimental: Apoptosis induction was assessed using Cell Death Detection [sequence] (Roche Diagnostics, Basel, Switzerland) according to the manual. HeLa cells (ATG7 WT) or HeLa cells in which ATG7 was knocked out (ATG7 KO) were seeded into a 12-well plate at 1.0 × 10^5 cells/well and cultured (precultured) in DMEM under the conditions of 37°C and 5% CO2 for 24 hours. After the preculture, the medium was exchanged with DMEM supplemented with an anticancer agent containing doxorubicin at a predetermined concentration (1 or 2 µM), and the cells were cultured for 24 hours. The cells were then lysed with a lysis buffer, and the lysate was added to each well of the ELISA plate, incubated with an immunological reagent buffer containing anti-histone biotin and anti-DNA POD for 2 hours, and washed with an incubation buffer. Then, the resultant was reacted with 100 µL of an ABTS substrate buffer, and the absorbance was measured at 405 nm and 490 nm.
Apoptosis induction was assessed using Cell Death Detection [sequence] (Roche Diagnostics, Basel, Switzerland) according to the manual. […] Then, the resultant was reacted with 100 µL of an ABTS substrate buffer, and the absorbance was measured at 405 nm and 490 nm.
Assay [2] concerns HeLa cells in which ATG7 (autophagy-related gene) was knocked out (ATG7 KO). Kind of assay: Cell growth inhibitory effect (Cell Counting Kit-8), HeLa ATG7 KO. The following applies: 24 hours. How it is done: The results are shown in FIGS. 8 (ATG7 WT) and 9 (ATG7 KO).
FIGS. 20 and 21 show the results.
In FIGS. 20 and 21, HW represents DMEM (produced hydrogen water medium) containing produced hydrogen water with a dissolved hydrogen concentration of 0 ppm to 4 ppm, and HW + DOX represents the DMEM (produced hydrogen water medium) to which 0.5 µM doxorubicin was added.
The results are shown in FIGS. 26 (ATG7 WT) and 27 (ATG7 KO).

Assay [3] deals with HeLa cells expressing a GFP-LC3-RFP-LC3ΔG probe. In words: Autophagic activity based on GFP/RFP ratio (flow cytometry), HeLa. As for the experimental part: Then, the cells were detached and suspended, and the fluorescence intensities of GFP and RFP were analyzed by flow cytometry. The autophagic activity was quantitatively analyzed by determining the GFP/RFP ratio.
A1-containing filtered-water medium) containing 200 nM Baf.
The GFP-LC3-RFP-LC3ΔG probe (or a GFP-LC3-RFP probe described later) is described in, for example, the following paper. The GFP-LC3-RFP-LC3ΔG probe (or GFP-LC3-RFP probe) is cleaved by ATG4, and the same number of GFP-LC3 and RFP-LC3ΔG (or RFP) are produced in the cytoplasm. GFP-LC3 is localized in the autophagosomes, and then quenched and degraded in the autolysosomes. RFP-LC3ΔG (or RFP) remains in the cytoplasm and serves as an internal control reflecting the amount of GFP-LC3. The GFP/RFP ratio is obtained by quantifying the cumulative amount of degradation of GFP-LC3 by autophagy. A decrease in the GFP/RFP ratio indicates autophagy activation. An increase in the GFP/RFP ratio indicates autophagy inhibition. […]
(§1) Then, the cells were detached and suspended in the same manner as described in the section (2-3), and the fluorescence intensities of GFP and RFP were analyzed by flow cytometry. The autophagic activity was quantitatively analyzed by determining the GFP/RFP ratio.
(In general: Flow cytometry measures light scatter and fluorescence of single cells or particles in a stream.)

Another assay has as its system Caco-2 cells. Kind of assay: Cell growth inhibitory effect (Cell Counting Kit-8), Caco-2. The following applies: doxorubicin 1, 2, or 4 µM in serum-free medium (autophagy activating conditions), 24 hours (FIG. 12). As for the experimental part: FIGS. 12 to 15 show the results.
In FIG. 12, DOX + serum free represents DMEM with no serum (serum-free medium) to which doxorubicin was added at a predetermined concentration (1, 2, or 4 µM), DOX represents serum-containing DMEM with doxorubicin added at a predetermined concentration, and DOX + Baf. represents a medium (Baf. A1-containing medium) containing 200 nM Bafilomycin A1 (Baf. A1) dissolved in serum-containing DMEM, to which doxorubicin was added at the predetermined concentration.
In FIG. 15, FW (Medium + Baf. A1) represents a medium (Baf. A1-containing filtered-water medium) containing 200 nM Baf.

Assay [4] has as its system HCT116 cells expressing the GFP-LC3-RFP probe. In words: Autophagic activity based on GFP/RFP ratio (flow cytometry), HCT116. The following applies: fluorouracil 1 or 10 µM, 24 hours (FIG. 25). How it is done:
as §1

As to `COc1cccc2c1C(=O)c1c(O)c3c(c(O)c1C2=O)C[C@@](O)(C(=O)CO)C[C@@H]3O[C@H]1C[C@H](N)[C@H](O)[C@H](C)O1` [doxorubicin], in assay [1], the apoptosis induction result is given as “enhanced”. In assay [2] (doxorubicin 1, 2, or 4 µM, ATG7 KO compared with ATG7 WT (FIG. 6)), the “cell growth inhibitory effect” value is listed as “enhanced”. The GFP/RFP ratio entry in assay [3] (doxorubicin 1, 2, or 4 µM, 4 hours, a decrease indicates autophagy activation (FIG. 5)) is recorded as “decreased as the doxorubicin concentration increased”. Further, the “cell growth inhibitory effect of doxorubicin” value with Caco-2 cells is recorded as “rather reduced”.

On to `O=c1[nH]cc(F)c(=O)[nH]1` [fluorouracil], for which the GFP/RFP ratio entry in assay [4] was “decreased as the fluorouracil concentration increased”.

Turning to `CC(=O)O[C@H]1C(=O)[C@@]2(C)[C@H]([C@H](OC(=O)c3ccccc3)[C@]3(O)C[C@H](OC(=O)[C@H](O)[C@@H](NC(=O)c4ccccc4)c4ccccc4)C(C)=C1C3(C)C)[C@]1(OC(C)=O)CO[C@@H]1C[C@@H]2O` [paclitaxel], the “anticancer effect (cell growth inhibitory effect)” value in assay [2] (paclitaxel 1, 10, or 50 nM, ATG7 KO compared with ATG7 WT (FIG. 24)) is recorded as “enhanced”. Also, the GFP/RFP ratio result in assay [3] (paclitaxel 1, 5, or 10 nM, 24 hours (FIG. 23)) was “decreased as the paclitaxel concentration increased”.
